Test results published in US6627734B1 (dated 2003).

System: expressed full length clones containing these insertions (KOR-3a, KOR-3b, KOR-3c)
Assay: Preliminary binding of [3H]naloxone benzoylhydrazone to expressed full length KOR-3 splice variant clones
Parameters: species or system mouse
Conditions: preliminary studies; expressed full length clones with mini-exon insertions (KOR-3a, KOR-3b, KOR-3c); radioligand

## C=CCN1CC[C@]23c4c5ccc(O)c4O[C@H]2/C(=N/NC(=O)c2ccccc2)CC[C@@]3(O)[C@H]1C5 [[^3H]naloxone benzolhydrazone]
  binding of the kappa3 ligand by the expressed full length clones: quite well
